Literature values, collected in PMC3923778 (PLoS Currents, 2014).
pIC50: −log10 of the molar value.

Tested on: PDE5
Design: method as in PMID 9216839, PMID 17697115, PMID 8961086, PMID 7581878
Settings: [12] uses full length PDE5 derived from bovine lung, ref [12], [23], [27], [28], read-out: reported IC50; cited from earlier work

Compound: CN1C(=O)c2nc(Cc3ccc(C(F)(F)F)cc3)[nH]c2N2C1=N[C@H]1CCC[C@H]12 [SCH-51866, (+)-cis-5,6a,7,8,9,9a-hexahydro-2-[4-[trifluro-methyl]phenylmethyl]-5-methyl-cylopent[4,5]imidazo [2,1-b]purin-4(3H)one]
- pIC50: 7.22
